# Results taken from ChEMBL document CHEMBL1641528, “Reverse type I inhibitor of Mycobacterium tuberculosis CYP125A1” (Bioorg Med Chem Lett, 2011).
# Target: Steroid C26-monooxygenase (Mycobacterium tuberculosis, UniProt P9WPP1, C429L)
# Test: Binding affinity to Mycobacterium tuberculosis H37Rv CYP125A1 C429L mutant expressed in Escherichia coli by titration plot analysis
smiles,measurement,value
CC1CCC(C(=O)NC(Cc2c[nH]c3ccccc23)C(=O)Nc2ccncc2)CC1 (stereo unspecified),Kd,1680 nM
